Test results published in patent US11937603B2, “Maleimide derivatives having herbicidal activity, agronomic compositions of the maleimide derivatives, and uses thereof” (Gowan Company, LLC, priority 2018, dated 2024).

Legend:
Format in all cases: in vivo
Sida spinosa = experiment: Herbicidal activity in post-emergence; settings: dose of 250 g/ha, post-emergence (BBCH 11-12), twenty-one days after treatment, vs untreated control
Protocol: (§1) The herbicidal activity of the compounds of the invention in post-emergence was evaluated according to the following operating modes.
(§2) The plant species of interest (weeds or crops) were sown in pots with a diameter greater than 10 cm, a height of 10 cm and containing sandy soil. Six pots were used for each plant species.
(§3) Water was added to each pot in an amount suitable for the germination of the seeds. The pots were then divided into two groups each containing 3 pots for each weed or crop.
(§4) Upon reaching the phenological stage of the plants with 1-2 extended leaves (BBCH 11-12), the first group of pots was treated with the same hydroacetone dispersion containing 20% acetone by volume, the compound under evaluation at the desired dose and Tween 20 at 0.5% by weight, indicated in Example 6.
(§5) The second group was treated only with a hydroacetone solution containing acetone at 20% by volume and Tween 20 at 0.5% by weight, and was used as a comparison term (control).
(§6) All the pots were kept under observation in a conditioned environment (greenhouse) under the following environmental conditions: • temperature: 24° C. during the day and 18° C. at night • relative humidity: >50% • photoperiod: 16 hours; • light intensity: 12,000 lux.
(§7) The pots were uniformly watered as needed, so as to ensure a degree of humidity sufficient for a good development of the plants.
(§8) Twenty-one days after treatment, the herbicidal activity was evaluated according to the percentage of damage (scale 0-100%) found on the treated plants compared to the untreated plants (control): • 0%=No effect on the plants • 100%=Complete death of the plants
(§9) Nrs. 11,4,2,3 compared with a hydroacetone dispersion containing the Compound CR1 described in EP0297378.

Echinochloa crus-galli = experiment: Herbicidal activity in post-emergence; settings: dose of 250 g/ha, post-emergence (BBCH 11-12), twenty-one days after treatment, vs untreated control
Protocol: as §1, §2, §3, §4, §5, §6, §7, §8, §9

Digitaria sanguinalis = experiment: Herbicidal activity in post-emergence; settings: dose of 250 g/ha, post-emergence (BBCH 11-12), twenty-one days after treatment, vs untreated control
Protocol: as §1, §2, §3, §4, §5, §6, §7, §8, §9

Amaranthus retroflexus = experiment: Herbicidal activity in pre-emergence; settings: dose of 250 g/ha, twenty-one days after treatment, vs untreated control
Protocol: (§10) The herbicidal activity of the compounds of the invention in pre-emergence was evaluated according to the following operating modes.
(§11) The plant species of interest (weeds or crops) were sown in pots with a diameter of 10 cm, a height of 10 cm and containing sandy soil. Six pots of each plant species were used.
as §3
(§12) One day after sowing, the first group of pots was treated with a dispersion having the following composition:
(§13) The dispersion was prepared by adding a desired dose of a compound of the present invention to a hydroacetone solution containing acetone at 20% by volume and Tween 20 at 0.5% by weight, with respect to the total weight of the dispersion and applied on a surface of 2 square meters. […]
as §5, §6, §7, §8
(§14) Nrs. 4 and 2 compared with a dispersion containing the Compound CR1 described in EP0297378 instead of the compound having general formula (I): […]

Setaria viridis = experiment: Herbicidal activity in pre-emergence; settings: dose of 250 g/ha, twenty-one days after treatment, vs untreated control
Protocol: as §10, §11, §3, §12, §13, §5, §6, §7, §8, §14

Abutilon theophrasti = experiment: Herbicidal activity in pre-emergence; settings: dose of 250 g/ha, twenty-one days after treatment, vs untreated control
Protocol: as §10, §11, §3, §12, §13, §5, §6, §7, §8, §14

Lolium rigidum = experiment: Herbicidal activity in pre-emergence; settings: dose of 250 g/ha, twenty-one days after treatment, vs untreated control
Protocol: as §10, §11, §3, §12, §13, §5, §6, §7, §8, §14

Solanum nigra = experiment: Herbicidal activity in pre-emergence; settings: dose of 250 g/ha, twenty-one days after treatment, vs untreated control
Protocol: as §10, §11, §3, §12, §13, §5, §6, §7, §8, §14

CC1=C(C)C(O)N(c2cc(C(C)(C)C)on2)C1=O (stereo not drawn) [CR1, 1-(5-tert-butylisoxazol-3-yl)-2-hydroxy-3,4-dimethyl-2H-pyrrol-5-one, reference compound]
Herbicidal activity in post-emergence (percentage of damage, scale 0-100%) (Sida spinosa): 40% | Herbicidal activity in post-emergence (percentage of damage, scale 0-100%) (Echinochloa crus-galli): 85% | Herbicidal activity in post-emergence (percentage of damage, scale 0-100%) (Digitaria sanguinalis): 40% | Herbicidal activity in pre-emergence (percentage of damage, scale 0-100%) (Amaranthus retroflexus): 60% | Herbicidal activity in pre-emergence (percentage of damage, scale 0-100%) (Setaria viridis): 79% | Herbicidal activity in pre-emergence (percentage of damage, scale 0-100%) (Abutilon theophrasti): 90% | Herbicidal activity in pre-emergence (percentage of damage, scale 0-100%) (Lolium rigidum): 80% | Herbicidal activity in pre-emergence (percentage of damage, scale 0-100%) (Solanum nigra): 90%

COCC(=O)OC1C(C)=C(C)C(=O)N1c1nnc(C(C)(C)C)s1 (stereo not drawn) [Compound 2, 1-(5-tert-butyl-1,3,4-thiadiazol-2-yl)-3,4-dimethyl-2-methoxyacetate-2H-pyrrol-5-one]
Herbicidal activity in post-emergence (percentage of damage, scale 0-100%) (Sida spinosa): 90% | Herbicidal activity in post-emergence (percentage of damage, scale 0-100%) (Echinochloa crus-galli): 100% | Herbicidal activity in post-emergence (percentage of damage, scale 0-100%) (Digitaria sanguinalis): 100% | Herbicidal activity in pre-emergence (percentage of damage, scale 0-100%) (Amaranthus retroflexus): 92% | Herbicidal activity in pre-emergence (percentage of damage, scale 0-100%) (Setaria viridis): 100% | Herbicidal activity in pre-emergence (percentage of damage, scale 0-100%) (Abutilon theophrasti): 95% | Herbicidal activity in pre-emergence (percentage of damage, scale 0-100%) (Lolium rigidum): 100% | Herbicidal activity in pre-emergence (percentage of damage, scale 0-100%) (Solanum nigra): 95%

1-(5-tert-butyl-1,3,4-thiadiazol-2-yl)-3,4-dimethyl-2-methoxyethylcarbonate-2H-pyrrol-2-yl-5-one [Compound 3]
Herbicidal activity in post-emergence (percentage of damage, scale 0-100%) (Sida spinosa): 90% | Herbicidal activity in post-emergence (percentage of damage, scale 0-100%) (Echinochloa crus-galli): 95% | Herbicidal activity in post-emergence (percentage of damage, scale 0-100%) (Digitaria sanguinalis): 90%

CC1=C(C)C(OC(=O)C2CC2)N(c2cc(C(C)(C)C)on2)C1=O (stereo not drawn) [Compound 4, 1-(5-tert-butylisoxazole-3-yl)-2-cyclo-propanecarbonyloxy-3,4-dimethyl-2H-pyrrol-5-one]
Herbicidal activity in post-emergence (percentage of damage, scale 0-100%) (Sida spinosa): 100% | Herbicidal activity in post-emergence (percentage of damage, scale 0-100%) (Echinochloa crus-galli): 100% | Herbicidal activity in post-emergence (percentage of damage, scale 0-100%) (Digitaria sanguinalis): 100% | Herbicidal activity in pre-emergence (percentage of damage, scale 0-100%) (Amaranthus retroflexus): 80% | Herbicidal activity in pre-emergence (percentage of damage, scale 0-100%) (Setaria viridis): 100% | Herbicidal activity in pre-emergence (percentage of damage, scale 0-100%) (Abutilon theophrasti): 100% | Herbicidal activity in pre-emergence (percentage of damage, scale 0-100%) (Lolium rigidum): 90% | Herbicidal activity in pre-emergence (percentage of damage, scale 0-100%) (Solanum nigra): 100%
